One experiment has as its system IL-1β. Nature of the experiment: In vitro mRNA expression of IL-1β (transrepression parameter) in unstimulated human PBMC cultures. The experiment is classed as cell-based. The conditions noted are these: for Transrepression vs. Prednisolone IL-1β: mRNA, PBMC cultures, prednisolone/GR ligand quotient. From the text:
(§1) Regarding the definition of suitable parameters, the regulation, mediated by standard glucocorticoids and selective GR ligands, of more than 50 genes in primary human immune cells was examined in a broad screening approach. Selected genes were further characterized in vitro and in vivo in kinetic experiments. […] Decisive criteria for the parameter selection were 1) the consistent reflection of transactivation or transrepression properties of GR ligands, 2) the detection of the regulation in non-stimulated immune cells, and 3) the quick reaction of the gene expression in in vitro assays (the 4-hour time period was used for the screening), and the good and enduring detectability after in vivo application of GR ligands. These properties make it likely that a direct regulation of the gene expression by the GR ligands will take place and that the parameters will be usable in in vivo studies (e.g., as biomarkers).
(§2) To have a comparison with a standard GK, the GR-ligand-influenced gene expressions for these parameters were normalized to the gene expression after treatment with the standard GK, prednisolone. […] It is clear to one skilled in the art that the normalization could also in principle be related to any other glucocorticoid.
(§3) For gene suppression, the “prednisolone/GR ligand” quotient was derived for purposes of normalization, i.e., a lower value (<1) indicates a relatively weaker suppression by the GR ligands (higher values in the residual gene expression).
(§4) For the mRNA detection, the total RNA was isolated from the respective samples (human PBMC or human whole blood or spleen cells from mice), transcribed in the cDNA and amplified and detected below by means of Real-time TaqMan-PCR (Applied Biosystems). A relative quantification in comparison to the expression of the “house-keeping” gene HPRT was carried out. In each case, the ratio of the result for the GR ligands to the result of the vehicle control is plotted.

Experiment [1] deals with CD163. As to the kind of experiment: In vitro mRNA expression of CD163 (transactivation parameter) in unstimulated human PBMC cultures. The experiment is classed as cell-based. The conditions noted are these: for Transactivation vs. Prednisolone CD163: mRNA, PBMC cultures, GR-ligand/prednisolone quotient.
Description: as §1, §2, §3, §4

For experiment [2], the system named is FKBP51. As to the kind of experiment: In vitro mRNA expression of FKBP51 (transactivation parameter) in unstimulated human PBMC cultures. The experiment is classed as cell-based. The settings on record: for Transactivation vs. Prednisolone FKBP51: mRNA, PBMC cultures, GR-ligand/prednisolone quotient.
Description: as §1, §2, §3, §4

For the next experiment, the system named is TNF-α. Nature of the experiment: In vitro mRNA expression of TNF-α (transrepression parameter) in unstimulated human PBMC cultures. The experiment is classed as cell-based. The conditions noted are these: for Transrepression vs. Prednisolone TNF-α: mRNA, PBMC cultures, prednisolone/GR ligand quotient.
Description: as §1, §2, §3, §4

In experiment [3] the test system is FKBP51. As to the kind of experiment: Time-dependent FKBP51 mRNA expression in human whole-blood cultures. The experiment is classed as cell-based. The protocol:
as §4
(§5) For the parameters CD163 and FKBP51, in addition, the time-dependent influence of CR ligands on the mRNA expression in human whole-blood cultures was examined.

Experiment [4] concerns transactivation parameters. Nature of the experiment: Gene induction in human PBMC (transactivation profile). The experiment is classed as cell-based. The settings on record: mRNA. The protocol:
as §4
Below, by way of example, the application of the characterization of the transactivation and transrepression activity of selective GR ligands by means of gene expression analysis in primary immune cells is shown comparatively based on two SEGRA substances, the agonist in the transactivation, compound 1, and the antagonist in the transactivation, compound 2. The molecular mechanism of these substances had been previously characterized in the usual assays (see 5.2 and 5.3). The gene expression analysis was performed by means of quantitative Real-Time-TaqMan-PCR. The ratios (mean value±standard deviation) of the results for the GR ligands to the results for the vehicle control are shown.
In contrast to this, the different transactivation profile of the SEGRA substances is reflected in differing degrees of gene induction.

For experiment [5], the system named is FKBP51. Nature of the experiment: In vivo expression of FKBP51 in spleen cells of treated mice. The settings on record: after 24 hours. As for the experimental part:
as §4
(§6) The in vivo regulation of the expression of selected genes was characterized in the spleen cells of SEGRA-treated mice after 24 hours.

The test system of experiment [6] is tyrosinaminotransferase (TAT). Nature of the experiment: Induction of tyrosinaminotransferase (TAT) activity in rat hepatoma cells (H4IIE3). The experiment is classed as cell-based. The settings on record: for effectiveness, induction of the TAT activity, % of the maximum dexamethasone effect / EC50: agonism, n=2; for EC50: read-out: power, induction of the TAT activity. The protocol:
In a second transactivation system, the induction of the tyrosinaminotransferase (TAT) by glucocorticoids is determined. In the promoter of the gene for the TAT, GREs are also located, so that this gene is expressed in an enhanced form by binding of the ligand-activated GR. To this end, rat hepatoma cells (H4IIE3) are treated for 24 hours with test and reference substances, and then the TAT activity is determined by photometry. For the two assays, both the detection of agonistic actions of the SEGRA substances in the transactivation and the detection of antagonistic actions in the induction of the parameters by other GR ligands are possible.
(§7) The activities of SEGRA substances in the respective transactivation and transrepression systems are determined in comparison to the activities of the reference substance dexamethasone.

The subject of experiment [7] is CD163. As to the kind of experiment: Time-dependent CD163 mRNA expression in human whole-blood cultures. The experiment is classed as cell-based. As for the experimental part: as §4, §5
In a further experiment the test system is GILZ. As to the kind of experiment: In vivo expression of GILZ in spleen cells of treated mice. The settings on record: after 24 hours. The protocol: as §4, §6
The test system of experiment [8] is CD163. Nature of the experiment: In vivo expression of CD163 in spleen cells of treated mice. The conditions noted are these: after 24 hours. As for the experimental part: as §4, §6
The subject of a further experiment is glutamine synthetase. Nature of the experiment: In vivo expression of glutamine synthetase in spleen cells of treated mice. The settings on record: after 24 hours. As for the experimental part:
as §4, §6

For a further experiment, the system named is MMTV promoter. As to the kind of experiment: MMTV promoter luciferase transactivation assay in HeLa cells. The experiment is classed as cell-based, human.
Description: The promoter of the mouse mammary tumor virus (MMTV) contains specific binding sites for the activated GR (so-called GREs). This promoter was cloned before a reporter gene (luciferase), and the construct was integrated in a stable manner in the genome of the human cell line HeLa (cervix carcinoma cells). By adding test and reference substances, the MMTV promoter is activated, and the luciferase, whose activity can be detected by means of photometric measurement, is expressed.
as §7

The test system of a further experiment is inflammatory cytokines. Nature of the experiment: In vivo expression of inflammatory cytokines in spleen cells of treated mice. The conditions noted are these: after 24 hours, vs vehicle control. As for the experimental part: as §4, §6
[9] abbreviates: human PBMC cultures, single substance.
Setting [10] is: human PBMC cultures, antagonism.

Take `C[C@@H]1C[C@H]2[C@@H]3CCC4=CC(=O)C=C[C@]4(C)[C@@]3(F)[C@@H](O)C[C@]2(C)[C@@]1(O)C(=O)CO` [Dexamethasone, dexamethasone]: the “Transrepression vs. Prednisolone IL-1β” value with IL-1β (1 hour) is reported as 0.61; in the experiment on IL-1β (2 hours), 0.69; in the experiment with IL-1β (4 hours), 1.27; in the experiment with IL-1β (12 hours), 0.96; with IL-1β (24 hours), 1.16. The “Transactivation vs. Prednisolone CD163” value in the experiment with CD163 [1] (1 hour) was determined as 1.02; in the experiment with CD163 [1] (2 hours), 1.89; in the experiment with CD163 [1] (4 hours) it was 1.34; with CD163 [1] (12 hours), 1.13; with CD163 [1] (24 hours), 1.04. In addition, the “Transactivation vs. Prednisolone FKBP51” value was determined as 0.89 with FKBP51 [2] (1 hour); 1.13 with FKBP51 [2] (2 hours); 1.08 with FKBP51 [2] (4 hours); 1.07 in the experiment with FKBP51 [2] (12 hours); 1.05 in the experiment with FKBP51 [2] (24 hours). The “Transrepression vs. Prednisolone TNF-α” value turned out to be 0.80 with TNF-α (1 hour); 0.85 in the experiment on TNF-α (2 hours); 1.01 in the experiment with TNF-α (4 hours); 1.00 in the experiment on TNF-α (12 hours); 0.97 with TNF-α (24 hours).
As for `Cc1noc(=O)c2ccc(NC(=O)C(O)(CC(C)(C)c3cccc4c3OCO4)C(F)(F)F)cc12` (centres unmarked) [compound 1], in the experiment on FKBP51 [3], the “time-dependent influence on FKBP51 mRNA expression” value is “induced the expression of these genes permanently”. Further, in experiment [4], the gene induction result is “clearly induces”. The “expression of FKBP51” value in the experiment with FKBP51 [5] was “clear induction”. For the same compound, in [6] (rat hepatoma cells), the “effectiveness, induction of the TAT activity, % of the maximum dexamethasone effect” value turned out to be 86±12.7% and the EC50 came to 5.7 ± 0.6 nM. Besides, the “time-dependent influence on CD163 mRNA expression” value in the experiment with CD163 [7] is “induced the expression of these genes permanently”. For the same compound, the “expression of GILZ” value in the experiment on GILZ was “clear induction”. The “expression of CD163” value in the experiment with CD163 [8] is listed as “clear induction”. In addition, in the experiment with glutamine synthetase, the “expression of glutamine synthetase” value was “clear induction”. Besides, in the experiment with MMTV promoter, the “antagonistic effect in the MMTV promoter assay (in words)” value is “antagonistic effect neither”. In the experiment on MMTV promoter (Homo sapiens, agonism, n=2, read-out: power, induction of the activity of the MMTV promoter), the EC50 was 10 ± 1.4 nM. Besides, the “effectiveness, induction of the MMTV promoter, % of the maximum dexamethasone effect” value in the experiment on MMTV promoter (agonism, n=2) is 73±2.8%.
Consider `Cc1noc(=O)c2ccc(NC(=O)C(O)(CC(C)(C)c3cc(F)ccc3C(F)(F)F)C(F)(F)F)cc12` (centres unmarked) [compound 2], for which the “time-dependent influence on FKBP51 mRNA expression” value in the experiment on FKBP51 [3] is recorded as “did not lead to the increase of the gene expression”. Further, in experiment [4], the gene induction entry is reported as “lower gene induction or no gene induction”. For the same compound, in the experiment with FKBP51 [5], the “expression of FKBP51” value is reported as “reduces the expression”. Besides, the Emax in experiment [6] (Rattus norvegicus, at a concentration of 1 μmol, read-out: antagonism of the dexamethasone-induced TAT activity, % of the maximum effect of RU 486) was determined as 35%. In experiment [6] (rat hepatoma cells), the “effectiveness, induction of the TAT activity, % of the maximum dexamethasone effect” value worked out at 43.5±10.6%; the EC50 amounted to 67 ± 10 nM; the “behaviour in the TAT promoter (in words)” value is listed as “partial agonist”. The “suppression of the mRNA expression of IL-1β (in words)” value with IL-1β (setting [9]) is given as “suppression”. Also, the “time-dependent influence on CD163 mRNA expression” value in the experiment with CD163 [7] is given as “did not lead to the increase of the gene expression”. For the same compound, the “CD163 expression in all batches” value in the experiment with CD163 [1] (human PBMC cultures, alone and with prednisolone) was “reduced”. Further, the “induction of CD163 on simultaneous administration with prednisolone, in comparison to prednisolone alone” value in the experiment on CD163 [1] (setting [10]) is reported as “clearly lower”. Besides, the “induction of CD163 (in words)” value in the experiment on CD163 [1] (setting [9]) is recorded as “not”. For the same compound, in the experiment on FKBP51 [2] (setting [10]), the “induction of FKBP51 on simultaneous administration with prednisolone, in comparison to prednisolone alone” value is “clearly lower”. For the same compound, the “expression of GILZ” value in the experiment on GILZ is “reduces the expression”. The “expression of CD163” value in the experiment with CD163 [8] is “reduces the expression”. Besides, in the experiment with glutamine synthetase, the “expression of glutamine synthetase” value was “reduces the expression”. In addition, the “suppression of the mRNA expression of TNF-α (in words)” value in the experiment on TNF-α (setting [9]) is “suppression”. Moreover, the “antagonistic effect in the MMTV promoter assay (in words)” value in the experiment on MMTV promoter was “clear antagonist”. Moreover, the IC50 in the experiment on MMTV promoter (Homo sapiens, antagonism, n=3, read-out: power, antagonism of the MMTV promoter activity induced by dexamethasone) worked out at 85 ± 12 nM. Besides, the “effectiveness, antagonism of dexamethasone-induced MMTV promoter activity, % of the maximum effect of the GR antagonist RU 486” value with MMTV promoter (antagonism, n=3) is on record as 119±3.6%. Besides, the “inhibition of the inflammatory cytokines (transrepression)” value with inflammatory cytokines is “less pronounced”.
